Reference: US20250134845A1, “Fumaric Acid Esters, Inhalation Administration Methods, Pharmaceutical Uses and Compositions” (Emory University, priority 2022, published 2025)
Where a name gives a salt, the structure may show the parent alone.

Tests used:
[1] = test system: IPF lung fibroblasts; test: H2O2 production in IPF lung fibroblasts (Amplex Red assay); format: cell-based, human; details: 24 h
Description: IPF lung fibroblasts were treated with DMF (1 μM) or vehicle (DMSO) followed by treatment TGF-b (2 ng/ml). H2O2 levels were evaluated at 24 h by Amplex™ Red assay.
Culture supernatant was evaluated for H2O2 levels at 24 h by Amplex™ Red assay.
Since primary mesenchymal cells isolated from IPF lungs represent a heterogeneous population of both fibroblasts and myofibroblasts “(myo)fibroblasts”, the efficacy of DMF was evaluate on both TGF-beta-induced and established profibrogenic phenotypes of these cells. To determine if DMF treatment can inhibit fibrogenic responses induced by TGF-beta, cells were pre-treated with DMF or vehicle followed by treatment with TGF-beta for 24 h.

[2] = test system: IPF lung fibroblasts; test: Collagen-1 expression in IPF lung fibroblasts (Western blot, densitometry); format: cell-based, human; details: vs vehicle
Excerpt: Since primary mesenchymal cells isolated from IPF lungs represent a heterogeneous population of both fibroblasts and myofibroblasts “(myo)fibroblasts”, the efficacy of DMF was evaluate on both TGF-beta-induced and established profibrogenic phenotypes of these cells. […]

[3] = test system: oxidative stress (ROS, oxidized glutathione, lipid peroxidation); test: Blood ROS, lung oxidized glutathione and lung lipid peroxidation in aged-injured mice; format: in vivo, mouse; details: for blood ROS levels: aged-injured mice
Description: Oral-DMF (n=7); intranasal-DMF (n=6).
Oral-vehicle (n=5); oral-DMF (n=5); intranasal-vehicle (n=3); intranasal-DMF (n=4).
Oral-vehicle (n=5); oral-DMF, (n=5); intranasal-vehicle (n=4); intranasal-DMF (n=3).
(§1) At 3 weeks post-bleomycin administration, mice were randomly assigned to one of four treatment groups. Between 3-6 weeks post-injury, DMF or vehicle (sterile PBS) was administered daily by oral gavage (240 μg/dose in 150 μL total volume) (Table 1) using a gavage tube. In parallel, mice were anesthetized using isoflurane and administered DMF or vehicle (sterile PBS) daily by intranasal instillation (80 μg/dose in 50 μL total volume) (Table 1). The control animals received vehicle only. Dosing was based on the solubility of this compound in the vehicle in the total volume used for administration (DMF was dissolved in sterile PBS at 42° C. and sonicated for 50 min). Mice were monitored for body-weight changes and survival. Mice were removed from the study when greater than 20% weight loss was observed compared to pre-surgery (day 0) or lack of responsiveness to touch. At 6 weeks post-injury, mice were sacrificed by CO2 inhalation.
(§2) In summary, lung-targeted treatment with DMF via inhaled delivery (as compared to oral delivery) can more effectively rescue local Nrf2 expression levels and promote redox homeostasis in the lungs.

[4] = test system: aged mice with bleomycin-induced persistent lung fibrosis; test: Aging murine model of bleomycin-induced persistent lung fibrosis: reversal of established fibrosis; format: in vivo, mouse; details: 3-6 weeks post-injury
Description: as §1, with “C57BL/6 aged (18 month) female mice received an intratracheal instillation of bleomycin (0.02875 U/mouse). DMF was administered daily by oral gavage (240 μg/150 μL in sterile PBS/mouse) or intranasal instillation (80 μg/50 μL in sterile PBS/mouse) from 3-6 weeks post-injury. Lung tissue was assessed by hematoxylin and eosin (H&E) staining for histopathology and Masson's trichrome blue staining for collagen. […] At 3” for “At 3”, “CO2 inhalation. This aging model of bleomycin-induced persistent lung fibrosis enables the evaluation of therapeutic agents for their efficacy in reversing age-dependent established fibrosis. […] Using the same injury model and treatment protocol, aged mice were administered DMF or vehicle daily via intranasal delivery from 3-6 weeks post-injury.” for “CO2 inhalation.”

[5] = test system: Nrf2; test: Lung Nrf2 expression in aged-injured mice (densitometric analysis); format: in vivo, mouse
Description: Oral-vehicle (n=7); oral-DMF (n=7); intranasal-vehicle (n=4); intranasal-DMF (n=4).
as §1, §2

[6] = test system: IPF lung fibroblasts; details: sulforaphane treatment (Nrf2 activation); cited from earlier work
[7] = intranasal delivery, 80 μg/dose daily, vs vehicle or oral DMF
[8] = intranasal 80 μg/dose daily, vs vehicle and oral DMF
[9] = oral gavage 240 μg/dose daily, aged mice

Compound | TGF-beta-induced production of ROS, specifically H2O2 ([1]; DMF 1 μM pre-treatment, then TGF-b 2 ng/ml, vs vehicle (DMSO)) | production of H2O2 (established pro-fibrotic phenotype) ([1]; DMF 1 μM, no TGF-beta, culture supernatant, vs vehicle) | TGF-beta-induced expression of collagen-1 ([2]; DMF 1 μM pre-treatment, then TGF-b 2 ng/ml, 48 h) | production of collagen-1 (established pro-fibrotic phenotype) ([2]; DMF 1 μM, no TGF-beta, 24 h) | blood ROS levels ([3]; intranasal delivery, 80 μg/dose daily) | lung lipid peroxidation [3, 7] | lung oxidized glutathione levels [3, 7] | blood ROS levels ([3]; oral administration, 240 μg/dose daily) | resolution of age-dependent established lung fibrosis (histopathology) ([4]; intranasal 80 μg/dose daily, aged mice) | lung collagen deposition (Masson's trichrome) [4, 8] | lung collagen-1 expression levels [4, 8] | lung fibronectin expression levels [4, 8] | lung hydroxyproline levels [4, 8] | lung fibrosis compared with vehicle-treated mice [4, 9] | resolution of age-dependent established lung fibrosis [4, 9] | lung Nrf2 expression levels ([5]; intranasal delivery, 80 μg/dose daily, aged-injured mice) | lung Nrf2 expression levels ([5]; oral administration, 240 μg/dose daily, aged mice with established fibrosis) | antioxidant responses in IPF lung fibroblasts [6] | dedifferentiation of IPF myofibroblast [6]
COC(=O)/C=C/C(=O)OC [DMF, dimethyl fumarate] | significantly reduced | significantly inhibited | inhibition | significantly inhibited | did not impact | significantly reduced | significantly reduced | reduced blood ROS levels | resulted in resolution | reduced collagen deposition | significantly decreased | significantly decreased | decreased lung hydroxyproline levels | indistinguishable from vehicle-treated mice | failed to promote the resolution | significantly increased | failed to rescue |  | 
C[S+]([O-])CCCCN=C=S (stereo not shown) [sulforaphane] |  |  |  |  |  |  |  |  |  |  |  |  |  |  |  |  |  | restored antioxidant responses | promoted dedifferentiation
